{
  "source": "patent US20240209061A1",
  "about": "“FUSION PROTEINS AND USES THEREOF” (Pfizer Inc., priority 2020, published 2024)",
  "key": {"[1]": {"test_system": "NY-ESO1-TCR+ Jurkat reporter cells", "assay": "Jurkat-NYESO1-IL-2-Luc and A375-CD64 co-stimulation assay", "format": "cell-based, human", "source_text": "Jurkat-IL-2-Luc reporter cells (Promega, Product #J1631) were engineered with T cell receptor, TCR (Wargo J. Cancer Immunol Immunother 2009; Zhao Y. J Immunol 2005, Li Y, Nat Biotechnol 2005) against HLA-A2 restricted NY-ESO1 (SLLMWITQC-SEQ ID NO: 19) epitope using lentiviral transduction system. Human melanoma cells A375, which express human HLA-A*0201, were transduced with lentiviral vector containing endogenous codon for NY-ESO1 gene (Refseq accession NM_001327.2, CCDS14758.1). Upon expression, the construct underwent proteolytic cleavage at the ubiquitin/epitope junction, thus generating free, cytoplasmic epitope, which can be translocated into the endoplasmic reticulum and loaded onto class I HLA. A375-NY-ESO1 positive cells were treated with IFNγ to induce HLA expression and NY-ESO1 antigen presentation. The HLA expression and the antigen presentation was confirmed by Western Blot. The NY-ESO1^+-A375 cells were further engineered to express human FCγRI (CD64, GenBank:AAA58414.1, RefSeq:P12314.1) for cell surface assembly and displaying of CD80-Fc fusion proteins. The expression of FCγRI was confirmed by flow cytometry analysis.\nA 96 well culture plate was seeded with NY-ESO1^+-A375 cells or NY-ESO1^+/FCγRI^+-A375 at 40,000 cells per well in 100 µL growth media (RPMI, 10% Heat Inactivated FBS, 200 μg/mL Hygromycin B, 1 mM sodium pyruvate, 0.1 mM MEM NEAA, 1 μg/mL puromycin) containing 10 ng/ml of human IFNγ (R&D Systems, product #285-IF) to induce MHC-A2 expression and grown overnight at 37° C. in CO2 incubator. To each well, NY-ESO1-TCR^+ Jurkat reporter cells, 100,000 (in 20 μL media), were added. 20 μL of serial dilutions of variant CD80-Fc fusion proteins with concentrations ranging from 0-1000 ng/ml (final concentrations per well) was added with appropriate controls. Assay plates were incubated for 6 hours at 37° C. in CO2 incubator. Following equilibration, 80 μL BioGlo luminescence reagent (BioGlo Luciferase assay kit, Promega, G7940) was added into each well. Plates were incubated for 5 minutes before reading luminescence on the EnSight™ plate reader (PerkinElmer)."}, "CD3+ T cells from PBMCs": {"test_system": "CD3+ T cells from PBMCs", "assay": "Gene expression pattern in primary human T cells (Nanostring)", "format": "cell-based", "conditions": "with anti-human CD3 antibody; 24 hour", "experimental": "96-well plates were coated overnight with 1 μg/ml of anti-human CD3 antibody (HIT3a clone, BioLegend). The following day, plates were washed 2× with PBS and blocked for 1 hour with 200 μl of complete IMDM (10% FBS, 1% Pen/Strep)/well. Upon removal of the blocking medium, plates were seeded with 250,000 PBMCs derived from three different donors and the following proteins: 1) 1.2 μg/ml CD80-K89D-D90K-T28V-T57V-Fc (concentration associated with max IL-2 production in similar assays), 2) 12 μg/ml CD80-WT-Fc (concentration associated with max IL-2 production in similar assay), and 3) 5 μg/ml anti-human CD28 antibody.\nAfter 24 hour incubation at 37° C. in a CO2 incubator, cells were harvested and stained with viability dye and anti-human CD3 (UCHT1 clone, Biolegend)). Viable CD3+ T cells were flow sorted and used for RNA extraction following Qiagen RNeasy protocol. Isolated RNA was used for a gene expression analysis utilizing Nanostring platform."}, "[2]": {"test_system": "EMT6 murine breast cancer cells", "assay": "EMT6 murine breast cancer model", "format": "in vivo, mouse", "conditions": "for Day 17 tumor volume: Days 0 and 3; for % tumor growth inhibition: Day 17; for # IFNγ-producing spots, Spleen / # IFNγ-producing spots, TDLN: average of n = 4 mice; for CD8^+ T cell infiltrates (% CD45): EMT6, n=4", "experimental": "EMT6 murine breast cancer cells (3×10^5) were orthotopically implanted in the mammary fat pad of female Balb/c mice. When tumors reached ˜90 mm^3 (day 5 after implantation), mice were randomized. PBS vehicle control or variant CD80-Fc fusion proteins were dosed intravenously at 0.01, 0.1, 1.0 and 3.0 mg/kg on Days 0 and 3. Tumor volume was determined by caliper measurements obtained in 2 dimensions and calculated as width^2×length/2. Error bars are depicted as ±SEM.\nTumor-reactive T cells in the spleen and tumor-draining lymph nodes (TDLNs) were measured by IFNγ ELIspot in mice treated with CD80-K89D-D90K-T28V-T57V-Fc.\nCytotoxic CD8^+ T cells are responsible for killing cancer cells and the measurement of CD8^+ T cells that have infiltrated tumors commonly correlates with efficacy for immune-oncology therapies. For all in vivo studies, tumors were collected ˜1 week after the first dose and dissociated by mincing, followed by incubation in an enzymatic digestion cocktail and homogenization. The resulting cell suspension was filtered and washed, and single cells were stained with antibodies to CD45, CD8, and a viability dye to detect tumor-infiltrating lymphocytes (TILs) by flow cytometry. Data were acquired on a BD LSRFortessa flow cytometer or a Cytek Aurora spectral flow cytometer. Table 31 and FIG. 18 show the amount of tumor-infiltrating CD8+ T cells expressed as a percentage of total immune cells (CD45+). Each value is the average of n=4 mice per group. Treatment with all variant CD80-Fc fusion proteins led to increase in CD8+ TILs in various tumor models."}, "[3]": {"conditions": "mouse, in vivo, iv, 0.1 mg/kg", "method": "PK of CD80-Fc fusion proteins was also assessed in transgenic mice expressing the human neonatal Fc receptor (huFcRn) a-chain transgene under the control of its natural human promoter. Female mice were dosed intravenously with CD80-Fc fusion proteins at 0.1 mg/kg, and blood was collected at the timepoints indicated on the graph. Levels of CD80-Fc in mouse plasma were measured as described above."}, "[4]": {"test_system": "EMT6 murine breast cancer cells", "assay": "EMT6 breast cancer model, combination with talazoparib", "format": "in vivo, mouse", "conditions": "for Day 20 tumor volume: talazoparib 0.33 mg/kg daily where combined; for % tumor growth inhibition: Day 20, talazoparib 0.33 mg/kg where combined", "experimental": "EMT6murine breast cancer cells (3×10^5) were orthotopically implanted in the mammary fat pad of female Balb/c mice. When tumors reached ˜90 mm^3 (day 5 after implantation), mice were randomized and dosed with PBS vehicle control, CD80-K89Q-D90Q-E23C-A26C-Fc (0.1 or 1 mg/kg), and/or 0.33 mg/kg talazoparib (Tala). CD80-D90Q-Fc was dosed on Days 0 and 3, talazoparib was dosed daily. Tumor volume was determined by caliper measurements obtained in 2 dimensions and calculated as width^2×length/2. Error bars are depicted as ±SEM"}},
  "data": [
    {"substance": "CD80-D90Q-Fc: variant CD80 ECD (D90Q) fused to human IgG1 Fc", "values": [
      {"measurement": "enhanced co-stimulation compared to CD80-WT-Fc", "setting": "[1]", "value": "about 4 fold"}
    ]},
    {"substance": "CD80-K89D-D90K-T28V-T57V-Fc: non-cysteine stabilized variant CD80-Fc fusion protein (K89D, D90K, T28V, T57V)", "values": [
      {"measurement": "IL7Rα- and TIGIT-encoding genes relative to anti-human CD3-only baseline, compared to CD80-WT-Fc", "setting": "CD3+ T cells from PBMCs", "value": "greater decrease"},
      {"measurement": "expression level of OX-40-encoding gene relative to CD80-WT-Fc", "setting": "CD3+ T cells from PBMCs", "value": "enhanced"},
      {"measurement": "expression of anti-apoptotic BCL-XL compared to CD80-WT-Fc", "setting": "CD3+ T cells from PBMCs", "value": "enhanced expression"},
      {"measurement": "expression of pro-apoptotic CASP8 compared to CD80-WT-Fc", "setting": "CD3+ T cells from PBMCs", "value": "decreased expression"},
      {"measurement": "gene expression of IL-2, IL-21 and Lymphotoxin Alpha (LTA) compared to CD80-WT-Fc", "setting": "CD3+ T cells from PBMCs", "value": "enhanced gene expression"},
      {"measurement": "Day 17 tumor volume", "setting": "[2]; 0.01 mg/kg IV", "value": 1552.0, "unit": "mm^3"},
      {"measurement": "% tumor growth inhibition", "setting": "[2]; 0.01 mg/kg", "value": 0.4, "unit": "%"},
      {"measurement": "# IFNγ-producing spots, Spleen", "setting": "[2]; 0.01 mg/kg", "value": 123.1},
      {"measurement": "# IFNγ-producing spots, TDLN", "setting": "[2]; 0.01 mg/kg", "value": 51.9},
      {"measurement": "Day 17 tumor volume", "setting": "[2]; 0.1 mg/kg IV", "value": 981.2, "unit": "mm^3"},
      {"measurement": "% tumor growth inhibition", "setting": "[2]; 0.1 mg/kg", "value": 39.0, "unit": "%"},
      {"measurement": "# IFNγ-producing spots, Spleen", "setting": "[2]; 0.1 mg/kg", "value": 117.9},
      {"measurement": "# IFNγ-producing spots, TDLN", "setting": "[2]; 0.1 mg/kg", "value": 132.3},
      {"measurement": "Day 17 tumor volume", "setting": "[2]; 1 mg/kg IV", "value": 818.8, "unit": "mm^3"},
      {"measurement": "% tumor growth inhibition", "setting": "[2]; 1 mg/kg", "value": 50.1, "unit": "%"},
      {"measurement": "# IFNγ-producing spots, Spleen", "setting": "[2]; 1 mg/kg", "value": 336.4},
      {"measurement": "# IFNγ-producing spots, TDLN", "setting": "[2]; 1 mg/kg", "value": 475.2},
      {"measurement": "Day 17 tumor volume", "setting": "[2]; 3 mg/kg IV", "value": 133.4, "unit": "mm^3"},
      {"measurement": "% tumor growth inhibition", "setting": "[2]; 3 mg/kg", "value": 96.6, "unit": "%"},
      {"measurement": "# IFNγ-producing spots, Spleen", "setting": "[2]; 3 mg/kg", "value": 427.7},
      {"measurement": "# IFNγ-producing spots, TDLN", "setting": "[2]; 3 mg/kg", "value": 540.9},
      {"measurement": "CD8^+ T cell infiltrates (% CD45)", "setting": "[2]; 0.01 mg/kg", "value": 3.98, "unit": "% CD45"},
      {"measurement": "CD8^+ T cell infiltrates (% CD45)", "setting": "[2]; 0.1 mg/kg", "value": 9.59, "unit": "% CD45"},
      {"measurement": "CD8^+ T cell infiltrates (% CD45)", "setting": "[2]; 1 mg/kg", "value": 15.91, "unit": "% CD45"},
      {"measurement": "CD8^+ T cell infiltrates (% CD45)", "setting": "[2]; 3 mg/kg", "value": 8.19, "unit": "% CD45"},
      {"measurement": "T1/2", "setting": "[3]", "value": 106, "unit": "h"}
    ]},
    {"substance": "CD80-K89Q-D90Q-E23C-A26C-Fc: disulfide stabilized variant CD80-Fc fusion protein (K89Q, D90Q, E23C, A26C)", "values": [
      {"measurement": "Day 20 tumor volume", "setting": "[4]; CD80-Fc dose 0.1 mg/kg", "value": 1149.2, "unit": "mm^3"},
      {"measurement": "Day 20 tumor volume", "setting": "[4]; CD80-Fc dose 1 mg/kg", "value": 637.5, "unit": "mm^3"},
      {"measurement": "% tumor growth inhibition", "setting": "[4]; CD80-Fc dose 0.1 mg/kg", "value": 43.1, "unit": "%"},
      {"measurement": "% tumor growth inhibition", "setting": "[4]; CD80-Fc dose 1 mg/kg", "value": 70.5, "unit": "%"},
      {"measurement": "Day 17 tumor volume", "setting": "[2]; 0.01 mg/kg IV", "value": 1581.7, "unit": "mm^3"},
      {"measurement": "% tumor growth inhibition", "setting": "[2]; 0.01 mg/kg", "value": "−1.7", "unit": "%"},
      {"measurement": "Day 17 tumor volume", "setting": "[2]; 0.1 mg/kg IV", "value": 912.2, "unit": "mm^3"},
      {"measurement": "% tumor growth inhibition", "setting": "[2]; 0.1 mg/kg", "value": 43.7, "unit": "%"},
      {"measurement": "Day 17 tumor volume", "setting": "[2]; 1 mg/kg IV", "value": 357.2, "unit": "mm^3"},
      {"measurement": "% tumor growth inhibition", "setting": "[2]; 1 mg/kg", "value": 81.4, "unit": "%"},
      {"measurement": "Day 17 tumor volume", "setting": "[2]; 3 mg/kg IV", "value": 457.5, "unit": "mm^3"},
      {"measurement": "% tumor growth inhibition", "setting": "[2]; 3 mg/kg", "value": 74.6, "unit": "%"}
    ]},
    {"substance": "CD80-K89Q-D90Q-Fc: variant CD80 ECD (K89Q, D90Q) fused to human IgG1 Fc", "values": [
      {"measurement": "enhanced co-stimulation compared to CD80-WT-Fc", "setting": "[1]", "value": "about 4 fold"}
    ]}
  ]
}
